Key:
Faecalibacterium = Faecalibacterium proliferative effect in vivo: cell number in feces of infants by real-time PCR; design: species or system human (infants); conditions: for mean number of cells of Faecalibacterium (log10) / mean number of cells of Faecalibacterium per g feces: infants, oral, daily 1-3 g; for Significant difference (vs 0 week): Wilcoxon signed rank test; for cell number of Faecalibacterium over study period (in words): 12-week study
Description: 58 infants from 6 months old to 6 years old were divided into 2 groups of 29 infants and they were designated 1-Kestose Group and Maltose Group. 1-Kestose Group took 1-kestose (purity 98% by mass or more, B Food Science Co., Ltd.) orally and Maltose Group took maltose (purity of 92% by mass or more, “Sunmalt-S” powder, Sanwa Starch Co., Ltd.) orally every day during the study period. The test period was 12 weeks. The daily intake of 1-kestose or maltose was 1 g (estimated intake; 0.121 g/kg body weight/day) for infants under 1 year old, 2 g (estimated intake; 0.169 g/kg body weight/day) for infants from 1 to 3 years old, and 3 g (estimated intake; 0.170 g/kg body weight/day) for infants from 4 to 6 years old. […] The estimated intake mentioned above was calculated based on the age-specific body weight data published in “2010 National growth survey on preschool children of the Ministry of Health, Labour and Welfare”. More specifically, the male and female medians were separately calculated from the minimums and the maximums of the body weight data within the age ranges of the study participants of Example 2 and the means of the medians were calculated. Subsequently, the male and female means of the means of the medians were calculated as estimated body weights. The estimated body weights were 8.26 kg for under 1 year old, 11.85 kg for 1 to 3 years old, and 17.62 kg for 4 to 6 years old. […] The numbers of cells of Faecalibacterium in the recovered feces were quantified by real-time PCR. Specifically, genomic DNA was first extracted from the feces using the reagent for genome extraction “Ultra Clean Soil DNA Isolation Kit” (Mo Bio Laboratories Inc.) and “High Pure PCR Template Preparation Kit” (Roche). […] The standard curve was generated based on the result of real-time PCR performed under the same conditions using genomic DNA extracted in the same way from Faecalibacterium prausnitzii strain ATCC27768 strain cultured in pure culture and counted under a microscope. The mean of cell numbers was calculated for each group.

[1] = test system: Faecalibacterium prausnitzii strain ATCC27768; assay: Faecalibacterium proliferative effect in vitro: culture turbidity with oligosaccharide added; assay type: cell-based; conditions: for turbidity (OD value) at 660 nm: oligosaccharide 5.0 g/L, 37° C., anaerobic
Procedure: Liquid media of the following composition was prepared sterile. 1-Kestose (purity of 99% by mass, B Food Science Co., Ltd.), nystose (purity of 98% by mass, Wako Pure Chemical Industries, Ltd.), xylooligosaccharide (purity of 99% by mass, B Food Science Co., Ltd.), raffinose (purity of 98% by mass, Meiji Food Materia Co., Ltd.) and lactosucrose (purity of 89% by mass, Ensuiko Sugar Refining Co., Ltd.) were used as oligosaccharides. Moreover, a liquid medium of the following composition with no oligosaccharide was also prepared as a control.
[Composition of Liquid Medium/Per L] (Final pH: 7.0)
Casein digest 15.0 g, yeast extract 5.0 g, L-cystine 0.5 g, sodium chloride 2.5 g, thioglycolic acid 0.5 g, tryptophan 25 mg, hemin proper quantity, vitamin K1 proper quantity, oligosaccharide 5.0 g.
A prepared liquid medium was inoculated with Faecalibacterium prausnitzii strain ATCC27768 precultured until confluent to a turbidity with an OD (Optical Density) value at 660 nm of 0.05 to 0.06. The inoculated culture was cultured statically at 37° C. in anaerobic environment and the turbidity (OD value) at 660 nm was measured with a spectrophotometer 24 hours, 48 hours, and 72 hours later. Moreover, the relation between OD value and the duration of culture is illustrated in a line graph of FIG. 1. Moreover, OD values at a duration of time of 72 hours are illustrated in a bar graph of FIG. 2.

| SMILES | mean number of cells of Faecalibacterium (log10) (Faecalibacterium; 0 week) [cells log10/g feces] | mean number of cells of Faecalibacterium per g feces (Faecalibacterium; 0 week) | change of cell number from 0 weeks (in words) (Faecalibacterium; 6 weeks) | Significant difference (vs 0 week) (Faecalibacterium; 6 weeks) | mean number of cells of Faecalibacterium (log10) (Faecalibacterium; 6 weeks) [cells log10/g feces] | mean number of cells of Faecalibacterium per g feces (Faecalibacterium; 6 weeks) | cell number of Faecalibacterium over study period (in words) (Faecalibacterium) | change of cell number from 0 weeks (in words) (Faecalibacterium; 12 weeks) | Significant difference (vs 0 week) (Faecalibacterium; 12 weeks) | mean number of cells of Faecalibacterium (log10) (Faecalibacterium; 12 weeks) [cells log10/g feces] | mean number of cells of Faecalibacterium per g feces (Faecalibacterium; 12 weeks) | OD values versus control and other oligosaccharides (in words) ([1]; 24 hours, 48 hours and 72 hours) | turbidity (OD value) at 660 nm ([1]; duration of culture 0 hour) | turbidity (OD value) at 660 nm ([1]; duration of culture 24 hours) | turbidity (OD value) at 660 nm ([1]; duration of culture 48 hours) | turbidity (OD value) at 660 nm ([1]; duration of culture 72 hours) | increase of cell number from 0 weeks (Faecalibacterium; 6 weeks) [times] | increase of cell number from 0 weeks (Faecalibacterium; 12 weeks) [times] |
| --- | --- | --- | --- | --- | --- | --- | --- | --- | --- | --- | --- | --- | --- | --- | --- | --- | --- | --- |
| OC[C@H]1O[C@H](O[C@H]2[C@H](O)[C@@H](O)C(O)O[C@@H]2CO)[C@H](O)[C@@H](O)[C@@H]1O (mixture of isomers) [Maltose, maltose] | 6.88 | 7.6 × 10^6 cells/g feces | slightly decreased | Not found | 6.77 | 5.8 × 10^6 cells/g feces | did not increase | slightly increased | Not found | 7.12 | 1.3 × 10^7 cells/g feces | – | – | – | – | – | – | – |
| OC[C@H]1O[C@@](CO)(OC[C@@]2(O[C@H]3O[C@H](CO)[C@@H](O)[C@H](O)[C@H]3O)O[C@H](CO)[C@@H](O)[C@@H]2O)[C@@H](O)[C@@H]1O [1-kestose] | 6.57 | 3.7 × 10^6 cells/g feces | – | Not found | 7.16 | 1.4 × 10^7 cells/g feces | increased markedly | – | Found | 7.54 | 3.5 × 10^7 cells/g feces | markedly greater | 0.063 | 0.345 | 0.885 | 1.803 | ≥ 3.5 | ≥ 9 |
| OC[C@H]1O[C@@H](O[C@H]2[C@H](O)[C@@H](O)[C@@H](O[C@]3(CO)O[C@H](CO)[C@@H](O)[C@@H]3O)O[C@@H]2CO)[C@H](O)[C@@H](O)[C@H]1O [Lactosucrose, lactosucrose] | – | – | – | – | – | – | – | – | – | – | – | – | 0.055 | 0.298 | 0.448 | 0.295 | – | – |
| OC[C@H]1O[C@@](CO)(OC[C@@]2(OC[C@@]3(O[C@H]4O[C@H](CO)[C@@H](O)[C@H](O)[C@H]4O)O[C@H](CO)[C@@H](O)[C@@H]3O)O[C@H](CO)[C@@H](O)[C@@H]2O)[C@@H](O)[C@@H]1O [Nystose, nystose] | – | – | – | – | – | – | – | – | – | – | – | – | 0.063 | 0.290 | 0.443 | 0.305 | – | – |
| OC[C@H]1O[C@H](OC[C@H]2O[C@H](O[C@]3(CO)O[C@H](CO)[C@@H](O)[C@@H]3O)[C@H](O)[C@@H](O)[C@@H]2O)[C@H](O)[C@@H](O)[C@H]1O [Raffinose, raffinose] | – | – | – | – | – | – | – | – | – | – | – | – | 0.052 | 0.251 | 0.191 | 0.246 | – | – |

— patent publication US20190070204A1, “PROLIFERATIVE AGENT FOR FAECALIBACTERIUM” (B FOOD SCIENCE CO., LTD., priority 2016, published 2019)
